Source: BindingDB's records for doi:10.1021/jm00046a020 (Purdue University, 1994)

What follows are molecules tested against Tyrosine-protein kinase transforming protein Src (Rous sarcoma virus) (assay: Inhibition of in vitro protein-tyrosine kinase activity of p60v-src enzyme in presence of 5 uM ATP.).

Structure (SMILES)	IC50 [µM]
Nc1ccc(-c2cc(=O)c3c(N)c(O)c(N)cc3o2)cc1 [5,7-Diamino-2-(4-amino-phenyl)-6-hydroxy-chromen-4-one]	> 50
Nc1ccc(-c2cc(=O)c3ccc(O)c(N)c3o2)cc1 [8-Amino-2-(4-amino-phenyl)-7-hydroxy-chromen-4-one]	> 50
Nc1ccc(-c2cc(=O)c3cc(N)c(O)c(N)c3o2)cc1 [6,8-Diamino-2-(4-amino-phenyl)-7-hydroxy-chromen-4-one]	> 50
Nc1ccc(-c2cc(=O)c3cc(N)ccc3o2)cc1 [6-Amino-2-(4-amino-phenyl)-chromen-4-one]	28.8
Nc1ccc(-c2cc(=O)c3cc(N)c(O)cc3o2)cc1 [6-Amino-2-(4-amino-phenyl)-7-hydroxy-chromen-4-one]	> 50
Nc1ccc(-c2cc(=O)c3cccc(N)c3o2)cc1 [8-Amino-2-(4-amino-phenyl)-chromen-4-one]	> 50
Nc1cccc(-c2cc(=O)c3c(N)c(O)c(N)cc3o2)c1 [5,7-Diamino-2-(3-amino-phenyl)-6-hydroxy-chromen-4-one]	38.4
Nc1ccc(-c2cc(=O)c3cc(N)cc(N)c3o2)cc1 [6,8-Diamino-2-(4-amino-phenyl)-chromen-4-one]	> 50
Nc1cccc(-c2cc(=O)c3cc(N)ccc3o2)c1 [6-Amino-2-(3-amino-phenyl)-chromen-4-one]	> 50
Nc1ccc(-c2cc(O)c3c(=O)c(N)ccc-3o2)cc1 [6-Amino-2-(4-amino-phenyl)-5-hydroxy-chromen-4-one]	> 50
Nc1ccc(-c2cc(=O)c3c(O)ccc(N)c3o2)cc1 [8-Amino-2-(4-amino-phenyl)-5-hydroxy-chromen-4-one]	> 50
Nc1ccc(-c2cc(=O)c3cc(O)cc(N)c3o2)cc1 [8-Amino-2-(4-amino-phenyl)-6-hydroxy-chromen-4-one]	> 50
COc1cc(N)c2oc(-c3ccc(N)cc3)cc(=O)c2c1 [8-Amino-2-(4-amino-phenyl)-6-methoxy-chromen-4-one]	> 50
Nc1cccc(-c2cc(=O)c3cc(N)c(O)cc3o2)c1 [6-Amino-2-(3-amino-phenyl)-7-hydroxy-chromen-4-one]	> 50
